{"source": "patent US4866065A", "about": "“Imidazothienopyrimidines useful in psychopharmaceutical preparations” (A/S Ferrosan, priority 1987, dated 1989)"}
{"test_system": "benzodiazepine receptors", "experiment": "in vivo displacement of 3H-flunitrazepam specific binding to brain benzodiazepine receptors in mice", "parameters": "species or system mice (female, NMR)", "conditions": "intraperitoneal, test substance 15 min before 3H-FNM i.v., sacrificed 20 min after 3H-FNM, forebrain", "source_text": "The pharmaceutical properties of the compounds of the invention can be illustrated by determining their capability for displacing radioactive labelled flunitrazepam from benzodiazepine receptors.\nThe displacement activity of the compounds of the invention may be found by determining the ED50 value. The ED50 value represents the dose (mg/kg) of a test substance which causes the specific binding of flunitrazepam to benzodiazepine receptors in a living brain to be reduced to 50% of the oontrol value.\nSuch an in vivo test is carried out as follows:\nPrinciple. Twenty minutes after a dose of ^3 H-flunitrazepam (^3 H-FNM) (200 μCi/kg, i.v.) the amount of specific ^3 H-FNM binding to brain benzodiazepine receptors has reached its maximal value.\nTest procedure. Suspensions of test substances (2 mg/ml) are prepared in 5% Duphasol-X (TM Duphar, castor oil-ethylene oxide derivative for emulsifying and solubilizing Oil and other water-insoluble substances) by sonification for 10 min using a Branson B15 microtip ultrasonifier (setting 7). Groups of three mice (female, NMR, 18-22 grams) are injected with the test substance at 100 mg/kg intraperitoneally. Fifteen minutes after test substance administration the mice are challenged with 4 μCi intravenously of ^3 H-FNM (70-90 Ci/mole) in 200 μl physiological saline. Twenty minutes after ^3 H-FNM administration mice are sacrificed by decapitation, the forebrains rapidly excised (within 30 sec) and homogenized in 12 ml of icecold 25 mM KH2 PO4, pH 7.1, using an Ultra-Turrax homogenizer fitted with an N 10 shaft. […] The amounts of radioactivity on the filters are determined by conventional scintillation counting. […]\nResults. The ED50 value is determined from dose response curves. If only one dose of test substance is administered the ED50 value is calculated as follows, provided that the inhibition of specific binding is within the range of 25-75%: [formula] where Co is specific binding in controls and Cx is specific binding in mice treated with test substance.", "units": {"ED50 (dose reducing specific binding of flunitrazepam to benzodiazepine receptors in living brain to 50% of control)": "mg/kg"}}
{"compound": "Cn1c(=O)c2sccc2n2cnc(-c3noc(C4CC4)n3)c12", "note": "[Compound 3, 3-(5-cyclopropyl-1,2,4-oxadiazol-3-yl)-4,5-dihydro-4-methyl-5-oxo-imidazo[1,5-a]thieno[2,3-e]pyrimidine]", "ED50 (dose reducing specific binding of flunitrazepam to benzodiazepine receptors in living brain to 50% of control)": 0.6}
{"compound": "Cn1c(=O)c2sccc2n2cnc(-c3nc(C4CC4)no3)c12", "note": "[Compound 8, 3-(3-cyclopropyl-1,2,4-oxadiazol-5-yl)-4,5-dihydro-4-methyl-5-oxo-imidazo[1,5-a]thieno[2,3-e]pyrimidine]", "ED50 (dose reducing specific binding of flunitrazepam to benzodiazepine receptors in living brain to 50% of control)": 0.9}
{"compound": "Cc1noc(-c2ncn3c4ccsc4c(=O)n(C)c23)n1", "note": "[Compound 10, 4,5-dihydro-4-methyl-3-(3-methyl-1,2,4-oxadiazol-5-yl)-5-oxo-imidazo[1,5-a]thieno[2,3-e]pyrimidine]", "ED50 (dose reducing specific binding of flunitrazepam to benzodiazepine receptors in living brain to 50% of control)": 1.8}
